Columns and labels:
iPSC-derived astrocytes = assay: Calcium transients in iPSC-derived astrocytes in response to stimuli; format: cell-based, human; conditions: DMSO as control treatment, FIG. 15
[1] = as described in Sidrauski et al.; cited from earlier work

Structure (SMILES)	intracellular calcium levels (iPSC-derived astrocytes)	IC50 [1]	potency of trans-ISRIB relative to cis-ISRIB [1]
[Cl-].[K+] [KCL]	increase of intracellular calcium levels		
N[C@@H](CCC(=O)O)C(=O)O [glutamate]	increase of intracellular calcium levels		
O=C(COc1ccc(Cl)cc1)N[C@H]1CC[C@H](NC(=O)COc2ccc(Cl)cc2)CC1 [trans-ISRIB, N,N′-((1r,4r)-cyclohexane-1,4-diyl)bis(2-(4-chlorophenoxy)acetamide)]		5 nM	100 fold
Nc1ncnc2c1ncn2[C@@H]1O[C@H](COP(=O)(O)OP(=O)(O)OP(=O)(O)O)[C@@H](O)[C@H]1O [ATP]	increase of intracellular calcium levels		

Reference: patent US12729367B2, “Radial glia and astrocyte differentiation from human pluripotent stem cells” (The United States of America, as represented by the …, priority 2020, dated 2026)
